Experimental data: ChEMBL document CHEMBL5614447, “Innovative Drug Discovery: Targeting Cancer, Neurological Disorders, and Obesity” (ACS Med Chem Lett, 2024)

target: Protein cereblon/DNA damage-binding protein 1 (Homo sapiens) (UniProt Q96SW2+Q16531); test: Displacement of AlexaFlour-conjugated ligand from CRBN/DDB1 complex (unknown origin) incubated in 0.05% PA/0.1% BSA at room temperature for 60 mins by fluorescence polarization assay; assay type: protein assay
Sequence (Q16531 2-1140 partner limits assumed): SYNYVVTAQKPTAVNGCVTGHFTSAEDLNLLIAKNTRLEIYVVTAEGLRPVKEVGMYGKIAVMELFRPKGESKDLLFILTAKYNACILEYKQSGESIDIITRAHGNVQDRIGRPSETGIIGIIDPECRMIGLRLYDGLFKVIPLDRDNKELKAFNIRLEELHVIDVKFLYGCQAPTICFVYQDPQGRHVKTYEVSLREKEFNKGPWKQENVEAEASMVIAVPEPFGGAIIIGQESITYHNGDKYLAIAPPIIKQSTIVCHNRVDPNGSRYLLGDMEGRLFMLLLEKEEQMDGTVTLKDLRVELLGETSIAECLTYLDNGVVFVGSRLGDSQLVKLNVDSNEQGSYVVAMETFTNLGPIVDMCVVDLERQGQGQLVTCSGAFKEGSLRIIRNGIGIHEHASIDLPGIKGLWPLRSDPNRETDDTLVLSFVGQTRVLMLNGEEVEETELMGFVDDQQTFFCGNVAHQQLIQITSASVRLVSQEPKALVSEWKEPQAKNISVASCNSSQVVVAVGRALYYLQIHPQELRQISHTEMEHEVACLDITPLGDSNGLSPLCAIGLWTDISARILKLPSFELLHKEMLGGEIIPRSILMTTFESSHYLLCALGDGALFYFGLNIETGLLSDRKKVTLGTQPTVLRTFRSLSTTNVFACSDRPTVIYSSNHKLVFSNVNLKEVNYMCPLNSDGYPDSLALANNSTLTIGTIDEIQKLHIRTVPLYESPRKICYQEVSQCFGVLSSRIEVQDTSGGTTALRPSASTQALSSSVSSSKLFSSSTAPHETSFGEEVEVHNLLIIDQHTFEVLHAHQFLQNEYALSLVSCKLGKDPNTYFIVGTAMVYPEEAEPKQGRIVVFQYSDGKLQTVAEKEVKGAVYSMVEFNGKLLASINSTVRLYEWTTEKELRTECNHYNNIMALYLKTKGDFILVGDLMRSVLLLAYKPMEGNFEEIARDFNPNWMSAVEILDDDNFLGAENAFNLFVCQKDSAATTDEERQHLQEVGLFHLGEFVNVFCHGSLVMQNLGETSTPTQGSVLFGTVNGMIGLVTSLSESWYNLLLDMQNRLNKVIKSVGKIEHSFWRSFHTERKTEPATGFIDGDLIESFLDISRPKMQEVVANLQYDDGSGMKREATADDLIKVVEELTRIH
Sequence (Q96SW2 whole entry): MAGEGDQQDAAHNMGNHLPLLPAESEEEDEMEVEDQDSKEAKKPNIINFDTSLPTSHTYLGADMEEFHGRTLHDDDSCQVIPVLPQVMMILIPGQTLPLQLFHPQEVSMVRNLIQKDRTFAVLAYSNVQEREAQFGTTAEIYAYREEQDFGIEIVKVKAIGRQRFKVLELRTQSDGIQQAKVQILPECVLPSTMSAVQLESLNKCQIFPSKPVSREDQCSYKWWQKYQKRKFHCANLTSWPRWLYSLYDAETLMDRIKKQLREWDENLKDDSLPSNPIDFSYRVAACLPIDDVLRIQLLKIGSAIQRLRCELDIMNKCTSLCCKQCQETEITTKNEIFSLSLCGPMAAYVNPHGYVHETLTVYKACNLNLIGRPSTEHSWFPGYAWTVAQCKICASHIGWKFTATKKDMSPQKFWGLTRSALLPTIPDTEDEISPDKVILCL

| Structure (SMILES) | binding affinity (displacement) |
| --- | --- |
| O=C1CCC(N2CCOc3c([C@@H]4CCNC4)cccc32)C(=O)N1 (stereo partly drawn) | < 100 µM |
| CNC1CCN(c2cccc3c2O[C@@H](C)CN3C2CCC(=O)NC2=O)CC1 (stereo partly drawn) | < 100 µM |
| O=C1CCC(N2CCOc3c([C@@H]4CCCNC4)cccc32)C(=O)N1 (stereo partly drawn) | < 100 µM |
| CN(C(=O)OC(C)(C)C)C1CCN(c2cccc3c2OCCN3[C@H]2CCC(=O)NC2=O)CC1 | < 100 µM |
| CNC1CCN(c2cccc3c2O[C@H](C)CN3C2CCC(=O)NC2=O)CC1 (stereo partly drawn) | < 100 µM |
| O=C1CCC(N2CCOc3c([C@H]4CCNC4)cccc32)C(=O)N1 (stereo partly drawn) | < 100 µM |
| CN(C(=O)OC(C)(C)C)C1CCN(c2cccc3c2OCCN3[C@@H]2CCC(=O)NC2=O)CC1 | < 1 µM |
| O=C1CCC(N2CCOc3c(N4CCNCC4)cccc32)C(=O)N1 (stereo not drawn) | < 100 µM |
